{
  "source": "patent US20090304725A1",
  "about": "“Vaccine and Antigen Mimotopes Against Cancerous Diseases Associated with the Carcinoembryonic Antigen CEA” (Medizinische Universitat Wien, priority 2006, published 2009)",
  "key": {"[1]": {"test_system": "CEA antigen binding to anti-CEA antibody Col-1", "assay": "Mimicry test, competitive ELISA on coated CEA antigen with Col-1", "set-up": "species or system human", "settings": "phages at 5*10^10, 1*10^10, 1*10^9 particles per ml, simultaneously with Col-1", "procedure": "FIG. 3: Mimicry analysis in ELISA competition assay. Coated CEA antigen is detected by Col-1 antibody, rendering a maximal signal of 1,4. Simultaneous incubation was done with titrated phage clones (white columns highest, grey: medium, black: least concentration of phage clones). Bound Col-1 was detected with anti-mouse IgG-peroxidase labelled. X-axis: clone names, Y-axis: colour intensity at OD450-630 nm.\nThe CEA antigen (human purified; Sigma, St. Louis) was used for coating ELISA plates. After blocking and washing, mimotopes phages were added to wells in three concentrations (5*10^10, 1*10^10, 1*10^9 particles per ml) simultaneously with antibody Col-1. In a final step, bound Col-1 antibody was detected by a peroxidase-labeled anti-mouse antibody. TMB substrate (BD Biosciences, San Diego, Calif.) was added for development of the colour and signal intensity measured in ELISA reader at OD450-630. […] This assay evidenced that selected mimotopes are mimics of the Col-1 epitope on CEA antigen."}, "[2]": {"test_system": "HT29 CEA overexpressing cells", "assay": "Complement-dependent cytotoxicity (CDC) assay, CytoTox 96", "type": "cell-based", "settings": "highest value corrected to 100%", "procedure": "(§1) FIG. 6: CDC reaction in vitro. Effects of the mimotope induced antibodies in mediating complement-dependent cytotoxicity. The reaction was determined against the CEA positive cell line HT 29 and against the CEA negative cell line SW 480. Mouse immune sera in different concentrations were tested on the two cell lines. Sera from CEA-MAM immunized mice were used 1:50 (black columns; 1) and 1:100 (white column; 2). The antibody Col-1 (3), the isotype control antibodies IgG2a (4) and IgM (5) were used as negative controls.\n(§2) Complement-dependent cytotoxicity (CDC) and antibody-dependent-cytotoxicity (ADCC) effectivity of the antibodies induced by mimotope vaccination were measured with the CytoTox 96 Nonradioactive Cytotoxicity assay (Promega, Madison, Wis.). HT29 CEA overexpressing cells were used as positive target cells. SW480 CEA-negative colon cancer cells served as a negative target control cell line. The number of both target cells was optimized to 2×10^5 cells/ml. For CDC reactions (FIG. 6), pooled fifth immune sera were diluted 1:50 (1) or 1:100 (2) in CytoTox 96 assay medium. Additionally, the antibody Col-1 (3), an IgG2a (4) and an IgM (5) antibody (Sigma, Vienna, Austria) served as negative controls. […] All assay procedures and readouts were done as described in the manufacturers description. […] The results of the cytotoxicity was calculated as follows: […]"}, "[3]": {"test_system": "HT29 CEA overexpressing cells", "assay": "Antibody-dependent cytotoxicity (ADCC) assay, CytoTox 96", "type": "cell-based", "settings": "pooled fifth immune sera of immunized mice diluted 1:50; naive BALB/c spleen cells as effector cells", "procedure": "(§3) FIG. 7: ADCC reaction in vitro. Effects of the antibody-dependent cytotoxicity. The reaction was determined against the CEA positive cell line HT 29 and against the CEA negative cell line SW 480. The CEA-MAP serum was used 1:50 (black columns; 1). The mice immunized with a control-MAP (2) or alum alone (3) and the Col-1 antibody (4) were used as negative controls.\nas §2, with “controls. Spleen cells of naïve BALB/c mice were prepared by mashing the spleen and lysing the erythrocytes with ammonium chloride and used as effector cells.” for “controls.”"}, "[4]": {"test_system": "SW480 CEA-negative colon cancer cells", "assay": "Cytotoxicity assay on CEA-negative control cell line", "type": "cell-based", "settings": "sera of immunized mice", "procedure": "as §1, §3\nComplement-dependent cytotoxicity (CDC) and antibody-dependent-cytotoxicity (ADCC) effectivity of the antibodies induced by mimotope vaccination were measured with the CytoTox 96 Nonradioactive Cytotoxicity assay (Promega, Madison, Wis.). HT29 CEA overexpressing cells were used as positive target cells. […] All assay procedures and readouts were done as described in the manufacturers description. […] The results of the cytotoxicity was calculated as follows: […]"}, "[5]": {"biological_target": "CEA antigen (human purified; Sigma, St. Louis) (human) (UniProt P06731)", "sequence (P06731 35-685 limits assumed)": "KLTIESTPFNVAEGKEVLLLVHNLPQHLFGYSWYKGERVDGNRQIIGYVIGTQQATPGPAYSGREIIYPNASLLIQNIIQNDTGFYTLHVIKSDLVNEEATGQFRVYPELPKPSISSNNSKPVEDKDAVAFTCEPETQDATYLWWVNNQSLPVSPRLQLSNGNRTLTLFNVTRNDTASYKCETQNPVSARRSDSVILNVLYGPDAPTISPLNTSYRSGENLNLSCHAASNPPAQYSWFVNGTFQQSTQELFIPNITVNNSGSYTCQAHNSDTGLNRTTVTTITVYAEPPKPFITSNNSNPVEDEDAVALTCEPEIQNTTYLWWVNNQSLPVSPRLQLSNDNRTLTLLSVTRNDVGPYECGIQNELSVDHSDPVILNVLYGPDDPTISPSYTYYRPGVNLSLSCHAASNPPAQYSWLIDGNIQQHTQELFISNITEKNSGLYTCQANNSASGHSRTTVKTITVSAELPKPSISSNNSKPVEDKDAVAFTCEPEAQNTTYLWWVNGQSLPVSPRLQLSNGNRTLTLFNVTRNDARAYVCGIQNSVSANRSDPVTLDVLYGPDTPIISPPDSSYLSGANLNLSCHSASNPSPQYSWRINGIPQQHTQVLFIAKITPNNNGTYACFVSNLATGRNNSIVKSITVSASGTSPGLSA", "assay": "ELISA, CEA coated, bound Col-1 detected with anti-mouse IgG-peroxidase (FIG. 3)"}},
  "note": "Bridge positions count the residues as written; N and C are the ends. Ends that are not written are not given here.",
  "data": [
    {"molecule": "C-RLALGDAKKY-C (CRLALGDAKKYC; disulfide 1-12; not fully specified; printed as C-RLALGDAKKY-C) [COL4, CEA mimotope selected from phage library with antibody Col-1]", "values": [
      {"measurement": "competition of phage-displayed mimotope with CEA for binding to Col-1", "setting": "[1]", "result": "best candidate"}
    ]},
    {"molecule": "CC(C)C[C@H](NC(=O)CNC(=O)CNC(=O)[C@H](CCCNC(=N)N)NC(=O)[C@@H](N)CC(=O)O)C(=O)N[C@@H](Cc1c[nH]c2ccccc12)C(=O)N[C@@H](CCCCN)C(=O)N[C@H](C(=O)N1CCC[C@H]1C(=O)NCCCC[C@H](NC(=O)[C@@H]1CCCN1C(=O)[C@@H](NC(=O)[C@H](CCCCN)NC(=O)[C@H](Cc1c[nH]c2ccccc12)NC(=O)[C@H](CC(C)C)NC(=O)CNC(=O)CNC(=O)[C@H](CCCNC(=N)N)NC(=O)[C@@H](N)CC(=O)O)[C@@H](C)O)C(=O)NCCCC[C@H](NC(=O)[C@H](CCCCNC(=O)[C@@H]1CCCN1C(=O)[C@@H](NC(=O)[C@H](CCCCN)NC(=O)[C@H](Cc1c[nH]c2ccccc12)NC(=O)[C@H](CC(C)C)NC(=O)CNC(=O)CNC(=O)[C@H](CCCNC(=N)N)NC(=O)[C@@H](N)CC(=O)O)[C@@H](C)O)NC(=O)[C@@H]1CCCN1C(=O)[C@@H](NC(=O)[C@H](CCCCN)NC(=O)[C@H](Cc1c[nH]c2ccccc12)NC(=O)[C@H](CC(C)C)NC(=O)CNC(=O)CNC(=O)[C@H](CCCNC(=N)N)NC(=O)[C@@H](N)CC(=O)O)[C@@H](C)O)C(=O)NCC(=O)NCC(=O)N[C@@H](CSCC(=O)NCCCCCCNC(=O)CSC[C@H](NC(=O)CNC(=O)CNC(=O)[C@H](CCCCNC(=O)[C@H](CCCCNC(=O)[C@@H]1CCCN1C(=O)[C@@H](NC(=O)[C@H](CCCCN)NC(=O)[C@H](Cc1c[nH]c2ccccc12)NC(=O)[C@H](CC(C)C)NC(=O)CNC(=O)CNC(=O)[C@H](CCCNC(=N)N)NC(=O)[C@@H](N)CC(=O)O)[C@@H](C)O)NC(=O)[C@@H]1CCCN1C(=O)[C@@H](NC(=O)[C@H](CCCCN)NC(=O)[C@H](Cc1c[nH]c2ccccc12)NC(=O)[C@H](CC(C)C)NC(=O)CNC(=O)CNC(=O)[C@H](CCCNC(=N)N)NC(=O)[C@@H](N)CC(=O)O)[C@@H](C)O)NC(=O)[C@H](CCCCNC(=O)[C@@H]1CCCN1C(=O)[C@@H](NC(=O)[C@H](CCCCN)NC(=O)[C@H](Cc1c[nH]c2ccccc12)NC(=O)[C@H](CC(C)C)NC(=O)CNC(=O)CNC(=O)[C@H](CCCNC(=N)N)NC(=O)[C@@H](N)CC(=O)O)[C@@H](C)O)NC(=O)[C@@H]1CCCN1C(=O)[C@@H](NC(=O)[C@H](CCCCN)NC(=O)[C@H](Cc1c[nH]c2ccccc12)NC(=O)[C@H](CC(C)C)NC(=O)CNC(=O)CNC(=O)[C@H](CCCNC(=N)N)NC(=O)[C@@H](N)CC(=O)O)[C@@H](C)O)C(=O)O)C(=O)O)[C@@H](C)O", "note": "[CEA-mimotope MAP]", "values": [
      {"measurement": "CDC cytotoxicity", "setting": "[2]; pooled fifth immune sera of immunized mice diluted 1:50", "result": 100, "unit": "%"},
      {"measurement": "CDC cytotoxicity", "setting": "[2]; pooled fifth immune sera of immunized mice diluted 1:100", "result": 51, "unit": "%"},
      {"measurement": "ADCC cytotoxicity", "setting": "[3]", "result": 50, "unit": "%"},
      {"measurement": "cytotoxic reaction on CEA negative cells", "setting": "[4]", "result": "no reaction"}
    ]},
    {"molecule": "monoclonal antibody Col-1 (Zymed Lab., San Francisco, Calif.) (antibody, from another filing, V domains shown) VH: EVQLQQSGAELVRSGASVKMSCTASGFNIKDYYMHWVKQRPEQGLEWIGWIDPENGDTEYAPKFQGKATMTTDTSSNTAYLQLSSLTSEDTAVYYCNTRGLSTMITTRWFFDVWGAGTTVAVSS VL: DIVLTQSPASLTVSLGLRATISCRASKSVSASGYSYMHWYQQRPGQPPKLLIYLASNLQSGVPARFSGSGSGTDFTLNIHPVEEEDAATYYCQHSRELPTFGGGTKLEIK", "values": [
      {"measurement": "maximal signal (OD450-630 nm)", "setting": "[5]", "result": 1.4, "unit": "OD450-630 nm"}
    ]}
  ]
}
